In PMC4754968 (Clinical genitourinary cancer, 2014):
Values belong to the molecule of their own block, whether it stands above or below them.

Key:
metastatic RCC [1] = conditions: front line metastatic RCC setting; ref [1],[2]; cited from earlier work
[2] = Sunitinib multiple-dose pharmacokinetics; assay type: in vivo, patients; conditions: for AUC / CL/F / Cmax / half-life: human, oral; for AUC / CL/F / Cmax / half-life / Cmin / Tmin: plasma, multiple dose (dose 14), sunitinib 50 mg daily with everolimus 30 mg weekly; for AUC: AUCtau, dosing interval 24 hours; for CL/F: dose/AUCtau
[3] = Everolimus single-dose pharmacokinetics; assay type: in vivo, patients; conditions: for AUCinf % extrapolated: single dose everolimus 30 mg
[4] = human, in vivo, 30 mg
[5] = cited from earlier work
[6] = cited from earlier work; remark: listed apart in the source
metastatic RCC [7] = conditions: metastatic RCC previously treated with VEGFR tyrosine kinase inhibitor; ref [6]; cited from earlier work

Compound: Cc1ccc(Nc2nccc(N(C)c3ccc4c(C)n(C)nc4c3)n2)cc1S(N)(=O)=O [pazopanib]
progression free survival (PFS) (metastatic RCC [1]): less than a year

AUC ([2]; subject 1001): 1860 ng·h/mL
AUC ([2]; subject 1002): 2770 ng·h/mL
AUC ([2]; subject 1003): 2300 ng·h/mL
CL/F ([2]; subject 1001): 7.13 mL/min/kg
CL/F ([2]; subject 1002): 3.12 mL/min/kg
CL/F ([2]; subject 1003): 5.34 mL/min/kg
Cmax ([2]; subject 1001): 83.1 ng/mL
Cmax ([2]; subject 1002): 142 ng/mL
Cmax ([2]; subject 1003): 106 ng/mL
half-life ([2]; t1/2, subject 1002): 33 h
half-life ([2]; t1/2, subject 1003): 85.5 h
AUCtau compared with sunitinib monotherapy ([2]; same dose of sunitinib (50 mg/d), compared with Faivre, et al): substantially higher
Cmin ([2]; subject 1001): 59.4 ng/mL
Tmin ([2]; subject 1001): 2 h
Cmin ([2]; subject 1002): 80.3 ng/mL
Tmin ([2]; subject 1002): 0 h
Compound: CCN(CC)CCNC(=O)c1c(C)[nH]c(/C=C2\C(=O)Nc3ccc(F)cc32)c1C [Sunitinib, Sunitinib malate]
progression free survival (PFS) (metastatic RCC [1]): less than a year

Tmax ([3]; human, plasma, po): 2 h
AUC(0-inf) ([3]; human, plasma, po, AUCinf, subject 1002, after first oral dose of everolimus 30 mg, with sunitinib 50 mg daily, plasma): 1560 ng·h/mL
CL/F ([3]; human, plasma, po, CL/F, subject 1002, after first oral dose of everolimus 30 mg, with sunitinib 50 mg daily, plasma): 3.34 mL/min/kg
Cmax ([3]; human, plasma, po, Cmax, subject 1002, after first oral dose of everolimus 30 mg, with sunitinib 50 mg daily, plasma): 82.3 ng/mL
half-life ([3]; human, plasma, po, t1/2, subject 1002, after first oral dose of everolimus 30 mg, with sunitinib 50 mg daily, plasma): 25.7 h
AUCinf % extrapolated ([3]; subject 1002): 48.7%
AUCinf % extrapolated ([3]; subject 1003): 35.2%
AUCtau relative to AUCinf after the first dose [4]: almost double
Compound: CO[C@H]1C[C@@H]2CC[C@@H](C)[C@@](O)(O2)C(=O)C(=O)N2CCCC[C@H]2C(=O)O[C@H]([C@H](C)C[C@@H]2CC[C@@H](OCCO)[C@H](OC)C2)CC(=O)[C@H](C)/C=C(\C)[C@@H](O)[C@@H](OC)C(=O)[C@H](C)C[C@H](C)/C=C/C=C/C=C/1C [Everolimus]
bioavailability [5]: 16%
eliminated in bile [6]: 98%
progression-free survival (PFS) over placebo (metastatic RCC [7]): significant improvement
